# Measurements: PMC11439681, “The identification of potent dual-target monopolar spindle 1 (MPS1) and histone deacetylase 8 (HDAC8) inhibitors through pharmacophore modeling, molecular docking, molecular dynamics simulations, and biological evaluation” (Frontiers in Pharmacology, 2024)
# How the values were obtained:
# MPS1 = molecular target: T1, MPS1 (Homo sapiens, UniProt P33981); experiment: In vitro MPS1 inhibitory assay; type: biochemical
# T1 construct: purchased Abcam
# T1 sequence (P33981 1-857): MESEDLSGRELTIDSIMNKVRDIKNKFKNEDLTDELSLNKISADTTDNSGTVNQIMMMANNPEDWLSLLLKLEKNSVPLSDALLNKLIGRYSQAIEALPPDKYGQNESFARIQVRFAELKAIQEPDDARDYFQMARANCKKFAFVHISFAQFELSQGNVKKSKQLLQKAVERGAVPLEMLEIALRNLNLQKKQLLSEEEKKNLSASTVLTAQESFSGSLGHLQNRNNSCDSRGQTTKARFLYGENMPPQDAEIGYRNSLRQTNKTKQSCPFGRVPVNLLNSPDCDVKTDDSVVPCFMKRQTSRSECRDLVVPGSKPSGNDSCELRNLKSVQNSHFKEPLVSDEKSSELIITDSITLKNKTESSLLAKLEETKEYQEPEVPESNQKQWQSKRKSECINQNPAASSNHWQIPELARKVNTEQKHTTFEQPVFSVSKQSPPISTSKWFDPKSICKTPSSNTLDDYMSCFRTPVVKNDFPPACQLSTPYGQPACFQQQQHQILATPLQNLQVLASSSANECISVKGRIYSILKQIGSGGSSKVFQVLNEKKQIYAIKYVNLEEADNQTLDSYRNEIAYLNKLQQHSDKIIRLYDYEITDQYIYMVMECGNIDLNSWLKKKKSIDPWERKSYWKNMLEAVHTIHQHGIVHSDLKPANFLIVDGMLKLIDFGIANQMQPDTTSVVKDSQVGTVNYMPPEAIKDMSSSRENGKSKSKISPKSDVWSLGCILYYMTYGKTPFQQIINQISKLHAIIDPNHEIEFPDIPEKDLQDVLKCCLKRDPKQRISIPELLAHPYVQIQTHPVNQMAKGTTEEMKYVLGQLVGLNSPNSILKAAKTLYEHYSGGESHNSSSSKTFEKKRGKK
# Method: The methodology is as previously described ([Naud et al., 2013]). In brief, the experiment was conducted using 384-well black low-volume plates, which were loaded with MPS1 (concentration range of 3–12.5 nM), 5 μM fluorescence-labelled peptide (sequence: 5FAM-[…]-CONH2), 10 μM ATP, 1% (v/v) DMSO or the test compound (concentrations in 1% (v/v) DMSO ranged from 0.25 to 100 μM), and assay buffer. […]. The plate was read on a Caliper EZ reader II (PerkinElmer Life Sciences, Waltham, MA, United States). […]
# HDAC8 = molecular target: T2, HDAC8 (Homo sapiens, UniProt Q9BY41); experiment: In vitro HDAC8 inhibitory assay; type: biochemical; details: 90 min at 37°C
# T2 construct: purchased Abcam
# T2 sequence (Q9BY41 1-377): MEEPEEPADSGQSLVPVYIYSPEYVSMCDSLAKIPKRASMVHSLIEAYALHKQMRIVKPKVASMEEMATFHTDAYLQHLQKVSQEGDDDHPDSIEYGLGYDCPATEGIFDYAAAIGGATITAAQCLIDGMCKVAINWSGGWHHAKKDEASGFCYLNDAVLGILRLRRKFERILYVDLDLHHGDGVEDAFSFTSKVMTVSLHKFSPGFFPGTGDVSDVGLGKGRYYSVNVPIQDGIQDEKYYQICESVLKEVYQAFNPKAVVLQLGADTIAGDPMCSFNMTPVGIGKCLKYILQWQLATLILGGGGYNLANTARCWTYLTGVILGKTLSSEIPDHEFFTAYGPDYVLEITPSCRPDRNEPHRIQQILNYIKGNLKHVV
# Method: Inhibition of HDAC8 was determined in 96-well plates. […] The assessment of fluorescence intensity was executed at 390 nm and 460 nm via a microplate reader.
# HepG2 liver cancer cells = experiment: MTT cytotoxicity assay, HepG2; type: cell-based; details: Homo sapiens, 72 h cell treatment
# Method: The cells (5 × 10^4 cells/well) were incubated overnight in 96-well plates. A series of solutions containing varying concentrations of inhibitors were added and incubated at 37°C for a period of 72 h. Subsequently, the culture medium was removed, followed by a subsequent incubation of the cells with a 5 mg/mL MTT stock solution for 4 h. After centrifugation, the precipitate was solubilized in DMSO and gently shaken for 15 min. Finally, the absorbance measurement at 570 nm was completed using a microplate reader. Data analysis was performed using GraphPad Prism 6.0 software.
Structure (SMILES),IC50 (MPS1) [nM],IC50 (HDAC8) [nM],IC50 (HepG2 liver cancer cells) [µM],"MPS1 (IC50, nM) (MPS1; 10 μM ATP, 60 min, room temperature)"
COc1cc(-c2cnc(C)n2/C=C/C(=O)NO)ccc1Nc1cc2c(cn1)cc(C1C=CN=C1)n2C(=O)OC(F)(F)F (stereo not shown) [MPH-4],11.7 ± 0.95,13.5 ± 0.61,0.41,–
COc1cc(-c2cncn2/C=C/C(=O)NO)ccc1Nc1cc2c(cn1)cc(C1C=CN=C1)n2C(=O)OC(C)(C)C (stereo not shown) [MPH-2],7.6 ± 0.35,8.15 ± 0.58,0.32,–
"O=C(/C=C/c1cccc(S(=O)(=O)Nc2ccccc2)c1)NO [Belinostat, reference compound]",–,–,–,No inhibition
CC(C)(C)OC(=O)n1c(-c2cn[nH]c2C(F)F)cc2cnc(Nc3ccc(-c4cnc(C(F)(F)F)n4/C=C/C(=O)NO)cc3Cl)cc21 [MPH-6],10.8 ± 0.69,16.6 ± 2.06,0.53,–
Cc1ncc(-c2ccc(Nc3cc4c(cn3)cc(C3C=NC(C(F)(F)F)=C3)n4C(=O)OC(C)(C)C)cc2)n1/C=C/C(=O)NO (stereo not shown) [MPH-3],13.2 ± 0.82,15.2 ± 1.94,0.55,–
CC1=CC(c2cc3cnc(Nc4ccc(-c5cccc[n+]5/C=C/C(=O)NO)cc4Cl)cc3n2C(=O)OC(F)(F)F)C=N1 (stereo not shown) [MPH-1],9.38 ± 0.41,17.5 ± 2.32,0.47,–
